Data as given in patent US20230047788A1, “COMPOSITIONS COMPRISING 5-CHOLESTEN-3, 25-DIOL, 3-SULFATE (25HC3S) OR PHARMACEUTICALLY ACCEPTABLE SALT THEREOF AND AT LEAST ONE CYCLIC OLIGOSACCHARIDE” (Virginia Commonwealth University, priority 2016, published 2023).
Values joined by “and” are separate entries in the source; they are usually repeats but may differ in a detail not shown here. Equal values may be shown once.

How the values were obtained:
[1] = Solubility of 25HC3S in alpha-, beta- and gamma-cyclodextrin, 10 mM phosphate buffer pH 7.4; format: physicochemical; details: for repeated solubility of 25HC3S: repeated experiment
Procedure: The solubility of 25HC3S at ambient room temperature for one day in 5 and 10% (w/v) alpha cyclodextrin (α-CD), 1% (w/v) beta cyclodextrin (β-CD) and 5 and 10% (w/v) gamma cyclodextrin (γ-CD), each containing 10 mM phosphate buffer at pH 7.4 was determined by an HPLC method.
α-CD, β-CD and γ-CD were used in the study. Sodium phosphate monobasic, monohydrate and sodium phosphate, dibasic, anhydrous were used to prepare 10 mM phosphate buffer at pH 7.4.
Approximately 30 to 50 mg of 25HC3S was weighed into a 20 mL vial (5 vials total, one vial for each vehicle). Approximately 8 mL each of 5 and 10% (w/v) α-CD, 1% (w/v) β-CD, and 5 and 10% (w/v) γ-CD containing 10 mM phosphate buffer at pH 7.4 was added to each vial, respectively. The samples were sonicated and vortexed to disperse the drug. The drug suspensions in these 5 vials were stirred at 500 rpm at ambient RT (20.0-22.2° C.). On day 1, approximately 1.2 mL each of the suspensions was transferred into 2 mL conical vials (a total of 5 vials for each suspension) and centrifuged at 12,000 rpm for 10 min. Approximately 1 mL of the supernatant from each suspension (prior to filtration) was used for HPLC analysis. The supernatants for the rest of the vials from the same suspension were combined together and filtered through […], 13 mm in diameter Acrodisk syringe filter with Nylon membrane. The first 2-mL of filtrate was discarded. The next 2 consecutive filtrates of 0.5-0.7 mL each were collected into HPLC vials for analysis.

[2] = format: in vivo, Beagle dogs
Procedure: The objectives of this study were to evaluate the potential toxicity of 25HC3S when administered once daily by subcutaneous injection to Beagle dogs for 14 consecutive days. 25HC3S sodium salt in the vehicle (250 mg/mL hydroxypropyl-beta-cyclodextrin with 10 mM sodium phosphate buffer [approximate pH 7.6] in sterile water for irrigation) was administered via subcutaneous injection in the dorsoscapular area once daily for 14 consecutive days to 3 groups (Groups 2-4) of Beagle dogs. Dosage levels were 3, 10, and 30 mg/kg/day for Groups 2, 3, and 4, respectively. […] The dose volume was 1, 0.1, 0.33, and 1 mL/kg for Groups 1, 2, 3, and 4, respectively. Each group consisted of 4 males and 4 females. The animals were observed twice daily for mortality and moribundity. Clinical examinations (including injection site observations) were performed once daily for at least 6 days, including the day of randomization, prior to randomization, prior to dose administration, immediately following dose administration, and at approximately 2 hours following dose administration. Blood samples for toxicokinetic evaluation were collected from all animals prior to dosing (study day 0 only) and at 0.5, 1, 2, 4, 8, and 24 hours after dosing on study days 0 and 13.

[3] = human, in vivo
Procedure: This example describes a randomized, double-blind, placebo-controlled, safety and pharmacokinetic study of a parenteral formulation of 25HC3S. The study involved the administration of 25HC3S sodium salt to healthy subjects via intramuscular injections (IM) as i) single ascending doses (SAD) in the range of 30-300 mg and as ii) a multiple ascending dose (MAD) study using multiple IM doses of 150 mg administered daily for 5 days (see Table 13). All subjects were male, with an age range of 19-36 years.
In Part A of the study (SAD), a parenteral dose of 25HC3S or matching placebo was administered intramuscularly (IM) to cohorts of 6 healthy subjects (4 randomized to 25HC3S and two randomized to matching placebo on a double-blind basis). The initial dose was 30 mg and subsequent cohorts of 6 different subjects received doses of 90, 150, and 300 mg of 25HC3S. A total of 16 subjects received 25HC3S and 8 received placebo in Part A. In Part B (MAD), a parenteral dose of 150 mg 25HC3S or matching placebo was administered IM once daily for 5 days, altering injection sites, to a single cohort of 10 healthy subjects (8 randomized to 25HC3S and two randomized to matching placebo on a double-blind basis; see Table 14).
Safety assessments included periodic monitoring of routine vital signs, safety laboratory tests and 12 lead ECG collection. Subjects completed a screening phase, treatment and an end-of-study visit. Dose escalation to the next dose level in Part I and Part II of the study was undertaken following review of the preceding dose results.
Pain intensity (measured on a 0-10 numeric rating scale) was assessed after each injection, and the injection sites were examined for tenderness, redness, bruising, swelling and induration at specified time points after injection.

C[C@H](CCCC(C)(C)O)[C@H]1CC[C@H]2[C@@H]3CC=C4C[C@@H](OS(=O)(=O)[O-])CC[C@]4(C)[C@H]3CC[C@]12C.[Na+] [25HC3S, 5-cholesten-3, 25-diol, 3-sulfate]
25HC3S Solubility ([1]; 0 cyclodextrin, 10 mM phosphate pH 7.4, room temperature): 6 μg/mL and 0.012 mM | 25HC3S Solubility ([1]; 1% (w/v) beta-CD): 4.314 mM | Complexation with CD ([1]; 1% (w/v) beta-CD): yes | Ratio of CD/25HC3S ([1]; 1% (w/v) beta-CD): 2 mM/mM | 25HC3S Solubility ([1]; 1% (w/v) beta-CD (10 mg/mL), 10 mM phosphate pH 7.4, RT, one day): 2177.4 µg/mL | 25HC3S Solubility ([1]; 5% (w/v) alpha-CD): 0.065 mM | Complexation with CD ([1]; 5% (w/v) alpha-CD): no | Ratio of CD/25HC3S ([1]; 5% (w/v) alpha-CD): 791 mM/mM | 25HC3S Solubility ([1]; 5% (w/v) alpha-CD (50 mg/mL), 10 mM phosphate pH 7.4, RT, one day): 32.9 µg/mL | 25HC3S Solubility ([1]; 5% (w/v) gamma-CD): 1.118 mM | Complexation with CD ([1]; 5% (w/v) gamma-CD): no | Ratio of CD/25HC3S ([1]; 5% (w/v) gamma-CD): 34 mM/mM | 25HC3S Solubility ([1]; 5% (w/v) gamma-CD (50 mg/mL), 10 mM phosphate pH 7.4, RT, one day): 564.4 µg/mL | repeated solubility of 25HC3S ([1]; 5% (w/v) γ-CD): 292.4 µg/mL | 25HC3S Solubility ([1]; 10% (w/v) alpha-CD): 0.089 mM | Complexation with CD ([1]; 10% (w/v) alpha-CD): no | Ratio of CD/25HC3S ([1]; 10% (w/v) alpha-CD): 1155 mM/mM | 25HC3S Solubility ([1]; 10% (w/v) alpha-CD (100 mg/mL), 10 mM phosphate pH 7.4, RT, one day): 45 µg/mL | 25HC3S Solubility ([1]; 10% (w/v) gamma-CD): 0.301 mM | Complexation with CD ([1]; 10% (w/v) gamma-CD): no | Ratio of CD/25HC3S ([1]; 10% (w/v) gamma-CD): 256 mM/mM | 25HC3S Solubility ([1]; 10% (w/v) gamma-CD (100 mg/mL), 10 mM phosphate pH 7.4, RT, one day): 152.1 µg/mL | repeated solubility of 25HC3S ([1]; 10% (w/v) γ-CD): 98.2 µg/mL | survival to the scheduled necropsy ([2]; Beagle dogs, sc 3, 10, 30 mg/kg/day, 14 days): All animals survived | injection site changes ([2]; dog, in vivo, sc): no injection site changes appeared directly attributable | mean AUClast ([2]; dog, in vivo, sc, 30 mg/kg/day): 19,877 ng*hr/mL | mean C. ([2]; dog, in vivo, sc, 30 mg/kg/day): 7,753 ng/mL | first time point with detectable drug levels [3]: 0.5 h | mean pain intensity (0-10 numeric rating scale) [3]: 0.8-3.5 | time by which pain had resolved after injection [3]: ≤ 1 h | time of maximal pain intensity after injection [3]: 5 to 10 min
